Laboratory results taken from ChEMBL document CHEMBL6182916, “Unexpected Discovery of a Novel Triphenylphosphonium Alkylalcohol That Triggers Cancer Cell Death via Mitophagy and Ferroptosis” (J Med Chem, 2025).
Active and inactive are the calls of the source. No cut-off for these calls is given here.

Columns and labels:
MDA-MB-231 = assay: Antiproliferative activity against human MDA-MB-231 cells assessed as inhibition of cell growth measured after 72 hrs by MTT assay; format: functional, cell-based; details: MDA-MB-231, 72 h
HCC827 [1] = assay: Induction of apoptosis in human HCC827 cells assessed as early apoptotic cells at 1 uM measured after 48 hrs by annexin V and PI staining based flow cytometry analysis (reference value: 0.70%); format: functional
A-375 [2] = assay: Antiproliferative activity against human A-375 cells assessed as inhibition of cell growth measured after 72 hrs by MTT assay; format: functional, cell-based; details: A-375, 72 h
Mitochondrial membrane = assay: Induction of mitochondrial membrane depolarization in human HCC827 cells assessed as increase in J-monomer ratio at 0.5 uM incubated for 4 hrs by JC-1 staining based flow cytometric analysis; format: cell membranes
NCI-H460 = assay: Antiproliferative activity against human NCI-H460 cells assessed as inhibition of cell growth measured after 72 hrs by MTT assay; format: functional, cell-based; details: NCI-H460, 72 h
NCI-H1650 = assay: Antiproliferative activity against human NCI-H1650 cells assessed as inhibition of cell growth measured after 72 hrs by MTT assay; format: functional, cell-based; details: NCI-H1650, 72 h
HCC827 [3] = assay: Induction of cell cycle arrest in human HCC827 cells assessed as accumulation of cells at G2 phase at 0.4 uM incubated for 24 hrs by PI staining based flow cytometry analysis (reference value: 7.15%); format: functional
[4] = Antiproliferative activity against human HUVEC cells assessed as inhibition of cell growth measured after 72 hrs by MTT assay; format: toxicity, cell-based
HCC827 [5] = assay: Induction of mitochondrial dysfunction in human HCC827 cells assessed as cytochrome C release in cytoplasm at 1 uM measured after 72 hrs by laser scanning confocal fluorescence microscopic analysis; format: functional, cell-based
HCT-116 = assay: Antiproliferative activity against human HCT-116 cells assessed as inhibition of cell growth measured after 72 hrs by MTT assay; format: functional, cell-based; details: HCT-116, 72 h
[6] = Antiproliferative activity against HEK293T cells assessed as inhibition of cell growth measured after 72 hrs by MTT assay; format: toxicity, cell-based, HEK-293T; details: human
HCC827 [7] = assay: Induction of ROS generation in human HCC827 cells assessed as decrease in NADH content at 1 uM incubated for 4 hrs by absorbance based analysis; format: functional, cell-based
HCC827 [8] = assay: Inhibition of colony formation in human HCC827 cells at 0.2 uM incubated for 72 hrs by crystal violet staining based analysis; format: functional, cell-based
HCC827 [9] = assay: Induction of apoptosis in human HCC827 cells assessed as viable cells at 1.0 uM measured after 48 hrs by annexin V and PI staining based flow cytometry analysis (reference value: 96.74%); format: functional; details: read-out: Activity
[10] = tested on: Osimertinib-resistant NCI-H1975 cell; assay: Antiproliferative activity against human Osimertinib-resistant NCI-H1975 cell assessed as inhibition of cell growth measured after 72 hrs by MTT assay; format: functional, cell-based
NCI-H1299 = assay: Antiproliferative activity against human NCI-H1299 cells assessed as inhibition of cell growth measured after 72 hrs by MTT assay; format: functional, cell-based; details: NCI-H1299, 72 h
[11] = Antiproliferative activity against human Osimertinib-resistant HCC827 cell assessed as inhibition of cell growth measured after 72 hrs by MTT assay; format: functional, cell-based
A549 = assay: Antiproliferative activity against human A549 cells assessed as inhibition of cell growth measured after 72 hrs by MTT assay; format: functional, cell-based; details: A549, 72 h
[12] = Drug accumulation in mitochondria of human HCC827 cells at 10 uM incubated for 10 mins in presence of CCCP by RP-HPLC-UV analysis; format: ADME; details: hcc827, 10 min
HCC827 [13] = assay: Induction of cell cycle arrest in human HCC827 cells assessed as accumulation of cells at G1 phase at 0.4 uM incubated for 24 hrs by PI staining based flow cytometry analysis (reference value: 66.44%); format: functional
HCC827 [14] = assay: Induction of ROS generation in human HCC827 cells assessed as increase in NAD+/NADH ratio at 1 uM incubated for 4 hrs by absorbance based analysis; format: functional, cell-based
A-375 [15] = assay: Anticancer activity against human A-375 cells assessed as inhibition of cell growth by MTT assay; format: functional, cell-based
SK-LU-1 = assay: Antiproliferative activity against human SK-LU-1 cells assessed as inhibition of cell growth measured after 72 hrs by MTT assay; format: functional, cell-based; details: SK-LU-1, 72 h
NCI-H1975 = assay: Antiproliferative activity against human NCI-H1975 cells assessed as inhibition of cell growth measured after 72 hrs by MTT assay; format: functional, cell-based; details: NCI-H1975, 72 h
[16] = Antiproliferative activity against human LO2 cells assessed as inhibition of cell growth measured after 72 hrs by MTT assay; format: toxicity, cell-based, L02
HCC827 [17] = assay: Induction of apoptosis in human HCC827 cells assessed as necrotic cells at 1 uM measured after 48 hrs by annexin V and PI staining based flow cytometry analysis (reference value: 1.18%); format: functional
HCC827 [18] = assay: Induction of apoptosis in human HCC827 cells assessed as late apoptotic cells at 1 uM measured after 48 hrs by annexin V and PI staining based flow cytometry analysis (reference value: 1.29%); format: functional
HCC827 [19] = assay: Antiproliferative activity against human HCC827 cells assessed as inhibition of cell growth measured after 72 hrs by MTT assay; format: functional, cell-based; details: HCC827, 72 h
HCC827 [20] = assay: Induction of cell cycle arrest in human HCC827 cells assessed as accumulation of cells at S phase at 0.4 uM incubated for 24 hrs by PI staining based flow cytometry analysis (reference value: 26.41%); format: functional
MCF7 = assay: Antiproliferative activity against human MCF7 cells assessed as inhibition of cell growth measured after 72 hrs by MTT assay; format: functional, cell-based; details: MCF7, 72 h
[21] = Antiproliferative activity against human BEAS-2B cells assessed as inhibition of cell growth measured after 72 hrs by MTT assay; format: toxicity, cell-based
[22] = Drug accumulation in mitochondria of human HCC827 cells at 10 uM incubated for 5 mins; format: ADME; details: hcc827, 5 min
HCC827 [23] = assay: Antitumor activity against human HCC827 cells xenografted in female nude mouse model assessed as suppression of tumor growth at 100 mg/kg, ip measured every two days for 14 days; format: functional, organism-based; details: time 14.0 day

Row | Compound | IC50 (MDA-MB-231) | IC50 (A-375 [2]) | Activity (Mitochondrial membrane) | IC50 (NCI-H460) | IC50 (NCI-H1650) | IC50 (HCT-116) | IC50 [10] | IC50 (NCI-H1299) | IC50 (A549) | Drug uptake [12] | IC50 (A-375 [15]) | Activity (HCC827 [1]) | Activity (HCC827 [3]) | IC50 at 72 h [4] | Activity (HCC827 [5]) | IC50 at 72 h [6] | Activity (HCC827 [7]) | inhibition (HCC827 [8]) | viability at 1 µM (HCC827 [9]) | IC50 [11] | also measured
1 | OCCCCCCCCCC[P+](c1ccc(C(F)(F)F)cc1)(c1ccc(C(F)(F)F)cc1)c1ccc(C(F)(F)F)cc1.[Br-] | 6290 nM | 5400 nM | inactive | 3090 nM | 1970 nM | 7730 nM | 5320 nM | > 10000 nM | 6120 nM | Not_active | – | 1.3% | 4.38% | > 40000 nM | inactive | 13800 nM | Active | Weak_effect | 92.1% | > 5000 nM | Activity (HCC827 [13]): 69.33%; Activity (HCC827 [14]): Active; IC50 (SK-LU-1): > 5000 nM; IC50 (NCI-H1975): > 5000 nM; IC50 at 72 h [16]: > 40000 nM; Activity (HCC827 [17]): 2.87%; Activity (HCC827 [18]): 2.72%; IC50 (HCC827 [19]): > 5000 nM; Activity (HCC827 [20]): 26.29%; IC50 (MCF7): 6450 nM; IC50 at 72 h [21]: 6900 nM; Drug uptake [22]: 52%
2 | O=C(O)CCCCC(CCSCc1ccccc1)SCc1ccccc1 (configuration not stated) [CPI 613] | – | – | – | – | – | – | – | – | – | – | > 100000 nM | – | – | – | – | – | – | – | – | – | –
3 | COc1cc2ncnc(Nc3ccc(F)c(Cl)c3)c2cc1OCCCN1CCOCC1 | – | – | – | – | – | – | – | – | – | – | – | – | – | – | – | – | – | – | – | – | Activity (HCC827 [23]): Active
4 | O=C(CCCCC(CCSCc1ccccc1)SCc1ccccc1)OCCCCC[P+](c1ccccc1)(c1ccccc1)c1ccccc1 (configuration not stated) | – | – | – | – | – | – | – | – | – | – | 4150 nM | – | – | – | – | – | – | – | – | – | –

Now from value to compound, other results behind:

Row | IC50 (MDA-MB-231) | IC50 (A-375 [2]) | Activity (Mitochondrial membrane) | IC50 (NCI-H460) | IC50 (NCI-H1650) | IC50 (HCT-116) | IC50 [10] | IC50 (NCI-H1299) | IC50 (A549) | Drug uptake [12] | IC50 (A-375 [15]) | Compound | Activity (HCC827 [1]) | Activity (HCC827 [3]) | IC50 at 72 h [4] | Activity (HCC827 [5]) | IC50 at 72 h [6] | Activity (HCC827 [7]) | inhibition (HCC827 [8]) | viability at 1 µM (HCC827 [9]) | IC50 [11] | also measured
5 | 550 nM | 410 nM | inactive | 950 nM | 710 nM | 940 nM | 570 nM | > 5000 nM | 1070 nM | Not_active | 410 nM | OCCCCCCCCCC[P+](c1ccccc1)(c1ccccc1)c1ccccc1.[Br-] | 2.5% | 6% | 2380 nM | inactive | 2790 nM | Active | Weak_effect | 94.1% | 340 nM | Activity (HCC827 [13]): 74.82%; Activity (HCC827 [14]): Active; IC50 (SK-LU-1): 540 nM; IC50 (NCI-H1975): 320 nM; IC50 at 72 h [16]: 3120 nM; Activity (HCC827 [17]): 0.7%; Activity (HCC827 [18]): 4.02%; IC50 (HCC827 [19]): 230 nM; Activity (HCC827 [20]): 19.19%; IC50 (MCF7): 310 nM; IC50 at 72 h [21]: 1140 nM; Drug uptake [22]: ~ 90%
6 | – | – | – | – | – | – | – | – | – | – | 100 nM | O=C(CCCCC(CCSCc1ccccc1)SCc1ccccc1)OCCCCCCCCCC[P+](c1ccccc1)(c1ccccc1)c1ccccc1 (configuration not stated) | – | – | – | – | – | – | – | – | – | –
